The record followed here is the CombiSolv-Exp solvation set (Vermeire and Green 2021).

The data set in a line: solvent given as SMILES.

`CC(O)CC(C)(C)C` (stereo not given): the “solvation free energy, 298 K” value (in CCCCCCCC) was -5.41 kcal/mol and the “solvation free energy, 298 K” value (in CCCCCCCCCC) was -5.33 kcal/mol.

With `c1ccncc1`, the “solvation free energy, 298 K” value (in C1COCCO1) was -5.69 kcal/mol; the “solvation free energy, 298 K” value (in CC(=O)N(C)C) was -5.76 kcal/mol; the “solvation free energy, 298 K” value (in CC(C)(C)O) was -5.4 kcal/mol; the “solvation free energy, 298 K” value (in CC(C)=O) was -5.42 kcal/mol; the “solvation free energy, 298 K” value (in CC(C)CC(C)(C)C) was -4.03 kcal/mol; the “solvation free energy, 298 K” value (in CC(C)CO) was -5.67 kcal/mol. Further, the “solvation free energy, 298 K” value reads like this: (in CC(C)O) -5.27 kcal/mol; (in CCC(C)=O) -5.37 kcal/mol; (in CCC(C)O) -5.63 kcal/mol; (in CCCCCC) -4.19 kcal/mol; (in CCCCCCCCCCCCCCCC) -4.04 kcal/mol; (in CCCCCCCCO) -5.32 kcal/mol. Besides, the “solvation free energy, 298 K” value by setting is: (in CCCCN(C=O)CCCC) -5.32 kcal/mol; (in CCCCO) -5.39 kcal/mol; (in CCCO) -5.44 kcal/mol; (in CCO) -5.7 kcal/mol; (in CNC(C)=O) -5.35 kcal/mol; (in O) -4.69 kcal/mol. Besides, the “solvation free energy, 298 K” value (in [2H]O[2H]) was -4.52 kcal/mol.

With `Oc1cccc2ccccc12`, the “solvation free energy, 298 K” value is, setting by setting: (in CC(C)CC(C)(C)C) -8.54 kcal/mol; (in CCCCCC) -8.71 kcal/mol; (in CCCCCCC) -8.75 kcal/mol; (in CCCCCCCC) -8.73 kcal/mol; (in CCCCCCCCCC) -8.76 kcal/mol; (in O) -7.93 kcal/mol.

With `Clc1cc(-c2cc(Cl)c(Cl)c(Cl)c2)cc(Cl)c1Cl`, under “in O”, the “solvation free energy, 298 K” value is -4.11 kcal/mol.

For the compound `O=C(O)c1ccc(I)cc1`, the “solvation free energy, 298 K” value runs as follows: (in CN(C)C=O) -14 kcal/mol; (in O) -7.96 kcal/mol.

For `Clc1cc(Cl)c(-c2ccccc2)cc1Cl`, the “solvation free energy, 298 K” value (in CCCCCCCCO) was -10.6 kcal/mol.

Regarding `Clc1ccc(C(c2ccc(Cl)cc2)C(Cl)(Cl)Cl)cc1`, the “solvation free energy, 298 K” value reads like this: (in CCCCCCCCC=CCCCCCCCC(=O)OCC(COC(=O)CCCCCCCC=CCCCCCCCC)OC(=O)CCCCCCCC=CCCCCCCCC) -14.9 kcal/mol; (in CCCCCCCCO) -13.8 kcal/mol; (in O) -4.61 kcal/mol.

`CCCCCC(=O)O`: the “solvation free energy, 298 K” value (in O) was -6.11 kcal/mol.

`CC(=O)c1ccncc1`: for the setting “in O”, the “solvation free energy, 298 K” value was -7.62 kcal/mol.

Take `CC1=CCC23C(C)CCC(C(C)C)C2C13` (stereo not given): under “in O”, the “solvation free energy, 298 K” value is 0.56 kcal/mol.

For the compound `CCc1cccc2ccccc12`, the “solvation free energy, 298 K” value (in O) is -2.3 kcal/mol.

Consider `CCCCCCC(=O)O`, for which the “solvation free energy, 298 K” value (in O) was -6.12 kcal/mol.

With `Cc1cccc(O)c1C`, the “solvation free energy, 298 K” value is, setting by setting: (in CC(C)CC(C)(C)C) -6.27 kcal/mol; (in CCCCCC) -6.67 kcal/mol; (in O) -6.12 kcal/mol.

On to `O=C(O)c1cc([N+](=O)[O-])ccc1Cl`, for which the “solvation free energy, 298 K” value is, setting by setting: (in C1CCOC1) -13.6 kcal/mol; (in CC(C)(C)O) -13.1 kcal/mol; (in CC(C)CCO) -12.8 kcal/mol; (in CC(C)CO) -12.7 kcal/mol; (in CC(C)O) -13.1 kcal/mol; (in CC(C)OC(C)C) -12 kcal/mol. Also, the “solvation free energy, 298 K” value reads like this: (in CCC(C)O) -12.9 kcal/mol; (in CCCC(C)O) -12.8 kcal/mol; (in CCCCCCCCCCO) -12.4 kcal/mol; (in CCCCCCCCO) -12.6 kcal/mol; (in CCCCCCCO) -12.6 kcal/mol; (in CCCCCCO) -12.6 kcal/mol. Also, the “solvation free energy, 298 K” value was -12.8 kcal/mol (in CCCCCO); -12.9 kcal/mol (in CCCCO); -12.4 kcal/mol (in CCCCOC(C)=O); -13 kcal/mol (in CCCO); -12.6 kcal/mol (in CCCOC(C)=O); -13.2 kcal/mol (in CCO). The “solvation free energy, 298 K” value is -12.8 kcal/mol (in CCOC(C)=O), -12.8 kcal/mol (in CCOCC), -12.9 kcal/mol (in COC(C)=O) and -9.48 kcal/mol (in O).

Take `CCC=CCCC=O`: the “solvation free energy, 298 K” value (in O) was -3.19 kcal/mol.
